Experimental data taken from article PMC5084024, “The Identification of Biochanin A as a Potent and Selective β-Site App-Cleaving Enzyme 1 (Bace1) Inhibitor” (Nutrients, 2016).

Target: T1, BACE1 (β-site APP-cleaving enzyme 1) (Homo sapiens, UniProt P56817)
T1 construct: human recombinant BACE1, baculovirus-expressed
Assay: FRET enzyme assay with recombinant BACE1; Dixon and Lineweaver-Burk kinetics (Ki […])
Assay type: biochemical

T1 sequence (P56817 46-457): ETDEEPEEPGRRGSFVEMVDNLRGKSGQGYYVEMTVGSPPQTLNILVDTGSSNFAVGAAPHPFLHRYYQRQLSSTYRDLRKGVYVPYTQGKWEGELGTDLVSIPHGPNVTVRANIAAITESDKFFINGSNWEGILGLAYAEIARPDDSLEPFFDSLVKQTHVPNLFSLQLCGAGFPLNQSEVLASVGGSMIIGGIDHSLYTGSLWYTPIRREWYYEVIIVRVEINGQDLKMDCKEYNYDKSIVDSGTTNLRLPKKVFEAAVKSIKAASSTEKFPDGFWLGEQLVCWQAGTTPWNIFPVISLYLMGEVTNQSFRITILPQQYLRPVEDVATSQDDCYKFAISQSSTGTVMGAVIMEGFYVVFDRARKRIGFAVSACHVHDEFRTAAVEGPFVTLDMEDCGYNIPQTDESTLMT

Structure (SMILES): COc1ccc(-c2coc3cc(O)cc(O)c3c2=O)cc1 [Biochanin A, 5,7-dihydroxy-3-(4-methoxyphenyl)chromen-4-one]
- IC50: 28 µM
